Like-named read-outs stand apart in the source and are kept apart here.
Key:
Assay type in all cases: cell-based, murine
[1] = system: NO production in IFN-γ/LPS-stimulated RAW 264.7 macrophages; experiment: NO suppression (Griess nitrite determination) in IFN-γ/LPS-stimulated RAW 264.7 macrophages; conditions: for NO Inhibition at 50 µM (%) ± S.E.M: 50 µM test concentration; for inhibition at 50 µM: RAW264.7, 50 µM test concentration, read-out: NO Inhibition at 50 µM (%) ± S.E.M
Protocol: The synthesized compounds were screened for NO suppression activity in IFN-γ/LPS-stimulated RAW 264.7 macrophages at a 50 µM test concentration. […] The IC50 values of the fifty-seven bioactive compounds were determined and compared to that of the positive control, curcumin. An MTT assay was also carried out to confirm that NO inhibition was not due to cytotoxicity. […] The complete bioassay results of all the compounds are provided as Table S2 in Supplementary Data. RAW 264.7 murine macrophages cells obtained from American Type Culture Collection (ATCC, Rockville, MD, USA) were grown in Dulbecco’s Modified Eagle’s Medium (DMEM) containing 10% fetal bovine serum (FBS) and 1% penicillin/streptomycin in a 95% air and 5% CO2 atmosphere at 37 °C. RAW 264.7 cells at 90%–95% confluency were detached and seeded (50,000 cells/well) into a 96-well culture plate with 50 μL of DMEM and incubated for 24 h. The cells were then stimulated in […] of LPS (Escherichia coli, serotype 0111:B4) and 1 ng/ml of interferon-gamma (IFN-γ) in the presence or absence of test compounds for 17 h. Nitrite concentration was then determined by Griess assay by reacting 50 μL of cell culture supernatant with 50 μL of Griess reagent (1% sulfanilamide and 0.1% N-(1-naphthyl)ethylenediamine dihydrochloride in 2.5% phosphoric acid) at room temperature. The optical density was measured at 550 nm after 5 min of incubation at room temperature with a microplate reader.

[2] = Cell cytotoxicity determination (MTT assay); conditions: mouse, RAW 264.7 macrophage cells, RAW 264.7 cells, read-out: Cytotoxicity IC50 (µM) ± S.E.M
Protocol: (§1) The synthesized compounds were screened for NO suppression activity in IFN-γ/LPS-stimulated RAW 264.7 macrophages at a 50 µM test concentration. […] The IC50 values of the fifty-seven bioactive compounds were determined and compared to that of the positive control, curcumin. An MTT assay was also carried out to confirm that NO inhibition was not due to cytotoxicity. […] The complete bioassay results of all the compounds are provided as Table S2 in Supplementary Data.
(§2) RAW 264.7 murine macrophages cells obtained from American Type Culture Collection (ATCC, Rockville, MD, USA) were grown in Dulbecco’s Modified Eagle’s Medium (DMEM) containing 10% fetal bovine serum (FBS) and 1% penicillin/streptomycin in a 95% air and 5% CO2 atmosphere at 37 °C.
(§3) Supernatant in each well was removed followed by addition of 100 µL DMEM. Subsequently, 20 µL of 3-(4,5-dimethylthiazol-2-yl)-2,5-diphenyltetrazolium bromide (MTT, 5 mg/mL) was then added and the plate was incubated in a 95% air and 5% CO2 atmosphere at 37 °C for 4 h. The mixture of culture media and MTT in all wells were removed and the purplish formazan crystals formed were dissolved in dimethyl sulfoxide (DMSO) and further incubated for 15 min at room temperature. The color intensity was then measured at 570 nm at room temperature.

RAW 264.7 cells = experiment: Cell cytotoxicity determination (MTT assay); conditions: read-out: Cytotoxicity IC50 (µM) ± S.E.M
Protocol: as §1, §2, §3

[3] = IFN-γ/LPS-stimulated RAW 264.7 cells
[4] = Mus musculus, IFN-γ/LPS-stimulated RAW 264.7 cells
[5] = Mus musculus, RAW264.7, IFN-γ/LPS-stimulated RAW 264.7 cells, read-out: NO Inhibition IC50 (µM) ± S.E.M
[6] = Mus musculus, RAW264.7, Table 6, NO suppression IC50 used for QSAR, unit inferred, read-out: IC50
[7] = Mus musculus, RAW264.7, −log IC50 of NO suppression, read-out: pIC50 (converted)
[8] = IFN-γ/LPS-stimulated RAW 264.7 cells, read-out: NO Inhibition IC50 (µM) ± S.E.M

SMILES | NO Inhibition at 50 µM (%) ± S.E.M [1, 3] [%] | inhibition at 50 µM [1, 4] [%] | IC50 [1, 5] [µM] | IC50 [1, 6] [µM] | IC50 [1, 7] [µM] | IC50 [2] [µM] | IC50 (RAW 264.7 cells) [µM] | IC50 [1, 8] [µM]
COc1ccc(C(=O)/C=C(O)/C=C/c2ccccc2OC)c(O)c1 [Compound 48] | 66.3 ± 6.8 | 66.3 ± 6.75 | 39 ± 1.24 | 39 ± 1.2 | 38.9 | 88.5 ± 2.54 | 88.6 ± 2.5 | 
O=C(/C=C(O)/C=C/c1ccccc1O)c1ccccc1O [Compound 79] | 95.5 ± 0.6 | 95.46 ± 0.59 | 28.9 ± 1.5 | 28.9 ± 1.5 | 28.8 | 72.6 ± 2.61 | 56.4 ± 1.2 | 
O=C(/C=C(O)/C=C/c1ccc(O)cc1)c1ccccc1O [Compound 81] | 91.5 ± 3.9 | 91.5 ± 3.86 | 19.1 ± 0.644 | 19.1 ± 0.6 | 19.1 | 94.13 ± 0.917 | > 100 | < 20
O=C(/C=C(O)/C=C/c1cccc(O)c1)c1cc(O)ccc1O [Compound 90] | 90.9 ± 2.0 | 90.9 ± 2.02 |  |  | 35.5 | > 100 | 85 ± 1.4 | 
Cc1ccc(/C=C/C(O)=C/C(=O)c2cc(Cl)ccc2O)o1 [Compound 38] | 73.8 ± 1.1 | 73.8 ± 1.14 | 25.5 ± 1.03 | 25.5 ± 1 | 25.7 | > 100 |  | 
COc1ccc(O)c(C(=O)/C=C(O)/C=C/c2ccccc2)c1 [Compound 58] | 92.8 ± 1.8 | 92.8 ± 1.8 | 25.9 ± 0.325 | 25.9 ± 0.3 | 25.7 | > 100 |  | 
COc1ccc(C(=O)/C=C(O)/C=C/c2ccccc2)c(O)c1 [Compound 45] |  | 87.9 ± 5.1 | 29.5 ± 0.469 | 29.5 ± 0.5 | 29.5 | > 100 |  | 
O=C(/C=C(O)/C=C/c1ccccc1)c1cc(Cl)ccc1O [Compound 21] | 85.3 ± 6.8 | 85.3 ± 6.76 | 47.6 ± 1.14 | 47.6 ± 1.1 | 47.9 | > 100 |  | 
O=C(/C=C(O)/C=C/c1cccc(Cl)c1)c1cc(Br)ccc1O [Compound 43] | 81.2 ± 5.2 | 81.2 ± 5.16 | 19.8 ± 0.907 | 19.8 ± 0.9 | 20 | > 100 |  | < 20
COc1ccc(/C=C/C(O)=C/C(=O)c2cc(OC)ccc2O)c(OC)c1 [Compound 68] | 79.5 ± 4.7 | 79.5 ± 4.71 | 33.4 ± 0.695 | 33.4 ± 0.7 | 33.1 | > 100 |  | 
COc1cc(/C=C/C(O)=C/C(=O)c2ccccc2O)cc(OC)c1OC [Compound 9] | 96.6 ± 1.4 | 96.6 ± 1.43 | 16.6 ± 1.14 | 16.6 ± 1.1 | 16.6 | > 100 |  | < 20
O=C(/C=C(O)/C=C/c1cccc(Cl)c1)c1cc(Cl)ccc1O [Compound 23] | 66.6 ± 4.1 | 66.6 ± 4.11 | 36.2 ± 0.922 | 36.2 ± 0.9 | 36.3 | 68.4 ± 2.2 |  | 
O=C(/C=C(O)/C=C/c1ccccc1)c1cc(Br)ccc1O [Compound 41] |  | 79.9 ± 8.7 | 20.8 ± 0.54 | 20.8 ± 0.5 | 20.9 | > 100 |  | 
COc1cc(/C=C/C(O)=C/C(=O)c2cc(Cl)ccc2O)cc(OC)c1OC [Compound 28] |  | 89.5 ± 5.9 | 13.6 ± 0.532 | 13.6 ± 0.5 | 13.5 | > 100 |  | < 20
COc1ccc(C(=O)/C=C(O)/C=C/c2cc(OC)c(OC)c(OC)c2)c(O)c1 [Compound 52] | 96.4 ± 0.4 | 96.39 ± 0.37 | 29.3 ± 0.306 | 29.3 ± 0.3 | 29.5 | > 100 |  | 
O=C(/C=C(O)/C=C/c1ccc(Cl)s1)c1cc(Cl)ccc1O [Compound 36] | 71.6 ± 3.2 | 71.5 ± 3.2 | 25.3 ± 1.73 | 25.3 ± 1.7 | 25.1 | > 100 |  | 
COc1cccc(/C=C/C(O)=C/C(=O)c2ccccc2O)c1 [Compound 6] | 81.6 ± 4.0 | 81.6 ± 3.97 | 31.6 ± 0.632 | 31.6 ± 0.6 | 31.6 | > 100 |  | 
O=C(/C=C(O)/C=C/c1ccco1)c1ccccc1O [Compound 12] | 82.0 ± 3.2 | 82 ± 3.18 | 49 ± 1.05 | 49 ± 1 | 49 | > 100 |  | 
COc1ccc(O)c(C(=O)/C=C(O)/C=C/c2cc(OC)c(OC)c(OC)c2)c1 [Compound 64] | 95.2 ± 1.1 | 95.2 ± 1.09 | 18.4 ± 0.246 | 18.4 ± 0.2 | 18.2 | > 100 |  | < 20
COc1ccc(O)c(C(=O)/C=C(O)/C=C/c2ccco2)c1 [Compound 67] | 72.1 ± 3.1 | 72.1 ± 3.07 | 71.5 ± 2.5 | 71.5 ± 2.5 | 70.8 | > 100 |  | 
O=C(/C=C(O)/C=C/c1cccs1)c1ccc(O)cc1O [Compound 95] | 60.4 ± 2.0 | 60.4 ± 2.04 | 44.8 ± 1.57 | 44.8 ± 1.6 | 44.7 | > 100 |  | 
COc1ccc(O)c(C(=O)/C=C(O)/C=C/c2cccc(Cl)c2)c1 [Compound 59] | 89.1 ± 3.6 | 89.1 ± 3.56 | 35.7 ± 0.789 | 35.7 ± 0.8 | 35.5 | > 100 |  | 

Source: article PMC6271425, “Synthesis and Sar Study of Diarylpentanoid Analogues as New Anti-Inflammatory Agents” (Molecules, 2014)
